In patent US20250188088A1, “COMPOUND AND USE THEREOF” (ONQUALITY PHARMACEUTICALS CHINA LTD., priority 2022, published 2025):

System: rash caused by small molecule EGFR inhibitors
Assay: Prevention of rash caused by small molecule EGFR inhibitors, topical ointment, rat model
Type: in vivo, SD rats
How it was run: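 Female SD rats (~200 g, dorsal hair shaved, 10/group) dosed daily by gavage with small-molecule EGFR inhibitors; compound ointment or blank matrix applied once daily to ~3 cm×3 cm of back, left 4 h, then wiped off. Repeated until obvious rash in controls; control rate = % of treated rats with milder rash than controls.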

C[C@@H]1CCN(C(=O)CC#N)C[C@@H]1N(C)c1ncnc2c1ccn2C(=O)N(C)CCOC(=O)C1CCCO1 (stereo partly shown) [Compound A7]
Control Rate (Afatinib 40 mg/kg once a day, ointment 0.1 wt% once a day, 14 days): 20% | Control Rate (Afatinib 40 mg/kg once a day, ointment 0.3 wt% once a day, 14 days): 50% | Control Rate (Afatinib 40 mg/kg once a day, ointment 1.0 wt% once a day, 14 days): 70% | Control Rate (Afatinib 40 mg/kg once a day, ointment 3.0 wt% once a day, 14 days): 75% | Control Rate (Afatinib 40 mg/kg once a day, ointment 5.0 wt% once a day, 14 days): 80% | Control Rate (Afatinib 40 mg/kg once a day, ointment 10.0 wt% once a day, 14 days): 60% | Control Rate (Dacomitinib 10 mg/kg once a day, ointment 1.0 wt% once a day, 12 days): 40% | Control Rate (Dacomitinib 10 mg/kg once a day, ointment 5.0 wt% once a day, 12 days): 80% | Control Rate (EAI045 80 mg/kg once a day, ointment 1.0 wt% once a day, 11 days): 30% | Control Rate (EAI045 80 mg/kg once a day, ointment 10.0 wt% once a day, 11 days): 60% | Control Rate (Gefitinib 80 mg/kg twice a day, ointment 0.3 wt% once a day, 15 days): 10% | Control Rate (Gefitinib 80 mg/kg twice a day, ointment 1.0 wt% once a day, 15 days): 50% | Control Rate (Gefitinib 80 mg/kg twice a day, ointment 3.0 wt% once a day, 15 days): 60% | Control Rate (Gefitinib 80 mg/kg twice a day, ointment 5.0 wt% once a day, 15 days): 60% | Control Rate (Osimertinib 60 mg/kg twice a day, ointment 0.3 wt% once a day, 10 days): 20% | Control Rate (Osimertinib 60 mg/kg twice a day, ointment 5.0 wt% once a day, 10 days): 70%
